Experimental data taken from US11492335B2, “Aryl or heteroaryl triazolone derivatives or salts thereof, or pharmaceutical compositions comprising the same” (YUHAN CORPORATION, priority 2018, dated 2022).
Where a name gives a salt, the structure may show the parent alone.

Columns and labels:
Format in all cases: biochemical
recombinant human VAP-1 = target: T1, recombinant human VAP-1 (Homo sapiens, UniProt Q16853); experiment: Activity on recombinant human VAP-1, Amplex Red HRP-coupled hydrogen peroxide assay, benzylamine substrate; conditions: recombinant human VAP-1, benzylamine substrate; read-out: Inhibitory Activity (IC50, nM) human VAP-1
T1 construct: purchased R&D systems
T1 sequence (Q16853 1-763): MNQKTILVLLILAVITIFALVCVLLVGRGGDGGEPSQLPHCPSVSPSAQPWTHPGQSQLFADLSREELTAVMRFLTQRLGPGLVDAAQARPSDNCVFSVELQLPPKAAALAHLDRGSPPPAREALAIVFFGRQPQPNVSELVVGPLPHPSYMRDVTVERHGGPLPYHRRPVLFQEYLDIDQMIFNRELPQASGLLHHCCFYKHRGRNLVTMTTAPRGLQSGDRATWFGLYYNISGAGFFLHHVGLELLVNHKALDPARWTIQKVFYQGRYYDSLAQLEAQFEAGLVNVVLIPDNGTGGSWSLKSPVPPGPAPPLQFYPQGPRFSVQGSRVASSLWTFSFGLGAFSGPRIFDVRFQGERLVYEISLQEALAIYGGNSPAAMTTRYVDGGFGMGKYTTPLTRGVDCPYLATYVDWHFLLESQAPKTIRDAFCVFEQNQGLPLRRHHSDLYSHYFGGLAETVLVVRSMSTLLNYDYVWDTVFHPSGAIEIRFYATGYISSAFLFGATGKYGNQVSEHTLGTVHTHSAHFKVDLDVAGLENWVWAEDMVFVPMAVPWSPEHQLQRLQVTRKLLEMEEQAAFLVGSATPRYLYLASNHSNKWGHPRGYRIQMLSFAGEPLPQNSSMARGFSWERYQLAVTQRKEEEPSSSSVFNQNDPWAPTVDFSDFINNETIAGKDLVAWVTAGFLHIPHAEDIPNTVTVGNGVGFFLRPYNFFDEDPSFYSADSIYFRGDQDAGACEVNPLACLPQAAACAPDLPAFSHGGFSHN
Method in brief: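 Compounds were preincubated with purified enzyme in 50 mM sodium phosphate pH 7.4 at 37 °C for 30 min, then 200 uM Amplex Red, 1 mM benzylamine and 1 U/mL HRP were added. Resorufin fluorescence (ex 544/em 590 nm) was followed over 1-2 h; IC50 came from 4-parameter fits of signal-rate inhibition.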

[1] = target: T2, recombinant human MAO-A (monoamine oxidase-A) (Homo sapiens, UniProt P21397); experiment: Activity on recombinant human MAO-A, Amplex Red method, 0.5 mM tyramine substrate; conditions: 0.5 mM tyramine substrate, read-out: Inhibitory Activity (IC50, nM) MAO-A
T2 construct: purchased Sigma-Aldrich
T2 sequence (P21397 1-527): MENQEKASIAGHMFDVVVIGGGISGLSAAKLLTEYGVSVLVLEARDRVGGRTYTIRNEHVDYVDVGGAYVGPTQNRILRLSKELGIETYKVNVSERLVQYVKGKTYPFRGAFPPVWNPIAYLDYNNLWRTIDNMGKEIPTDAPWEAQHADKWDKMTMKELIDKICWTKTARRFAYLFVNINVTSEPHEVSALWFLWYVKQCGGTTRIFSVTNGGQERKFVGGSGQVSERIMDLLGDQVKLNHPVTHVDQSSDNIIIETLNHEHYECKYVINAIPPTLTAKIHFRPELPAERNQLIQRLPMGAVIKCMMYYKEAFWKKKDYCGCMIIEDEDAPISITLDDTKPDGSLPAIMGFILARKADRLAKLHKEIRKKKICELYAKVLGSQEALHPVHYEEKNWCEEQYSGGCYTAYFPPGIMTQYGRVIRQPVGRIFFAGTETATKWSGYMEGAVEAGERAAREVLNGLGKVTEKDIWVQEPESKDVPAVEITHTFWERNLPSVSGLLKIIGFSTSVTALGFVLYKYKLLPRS
Method in brief: (§1)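 8-point, 1:3 dose-response, four-parameter logistic IC50 from reduction in fluorescence rate versus DMSO control. HRP/Amplex Red detection of H2O2 (ex 544, em 590 nm) after 30 min, 37 °C compound–enzyme preincubation in pH 7.4 phosphate buffer. MAO-A substrate: 0.5 mM tyramine; MAO-B: 1 mM benzylamine.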

[2] = target: T3, recombinant human MAO-B (monoamine oxidase-B) (Homo sapiens, UniProt P27338); experiment: Activity on recombinant human MAO-B, Amplex Red method, 1 mM benzylamine substrate; conditions: 1 mM benzylamine substrate, read-out: Inhibitory Activity (IC50, nM) MAO-B
T3 construct: purchased Sigma-Aldrich
T3 sequence (P27338 1-520): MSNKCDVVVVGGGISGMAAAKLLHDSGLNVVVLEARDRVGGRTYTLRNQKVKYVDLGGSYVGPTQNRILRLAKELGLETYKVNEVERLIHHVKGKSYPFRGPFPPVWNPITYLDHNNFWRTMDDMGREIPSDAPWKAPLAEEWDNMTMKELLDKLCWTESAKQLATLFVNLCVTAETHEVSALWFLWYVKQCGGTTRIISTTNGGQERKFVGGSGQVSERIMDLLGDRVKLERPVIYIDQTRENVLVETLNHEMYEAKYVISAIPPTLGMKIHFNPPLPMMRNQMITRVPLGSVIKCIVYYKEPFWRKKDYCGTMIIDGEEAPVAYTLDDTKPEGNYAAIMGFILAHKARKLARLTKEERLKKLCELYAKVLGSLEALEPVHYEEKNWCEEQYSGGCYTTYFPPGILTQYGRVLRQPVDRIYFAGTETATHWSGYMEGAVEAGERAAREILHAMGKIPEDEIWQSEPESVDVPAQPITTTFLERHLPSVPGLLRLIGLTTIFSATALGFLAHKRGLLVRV
Method in brief: as §1

[3] = target: T4, recombinant human DAO (diamine oxidase) (Homo sapiens, UniProt P19801); experiment: Activity on recombinant human DAO, Amplex Red method, 1 mM putrescine substrate; conditions: recombinant human DAO, 1 mM putrescine substrate; read-out: Inhibitory Activity (IC50, nM) DAO
T4 construct: purchased R&D systems
T4 sequence (P19801 20-751): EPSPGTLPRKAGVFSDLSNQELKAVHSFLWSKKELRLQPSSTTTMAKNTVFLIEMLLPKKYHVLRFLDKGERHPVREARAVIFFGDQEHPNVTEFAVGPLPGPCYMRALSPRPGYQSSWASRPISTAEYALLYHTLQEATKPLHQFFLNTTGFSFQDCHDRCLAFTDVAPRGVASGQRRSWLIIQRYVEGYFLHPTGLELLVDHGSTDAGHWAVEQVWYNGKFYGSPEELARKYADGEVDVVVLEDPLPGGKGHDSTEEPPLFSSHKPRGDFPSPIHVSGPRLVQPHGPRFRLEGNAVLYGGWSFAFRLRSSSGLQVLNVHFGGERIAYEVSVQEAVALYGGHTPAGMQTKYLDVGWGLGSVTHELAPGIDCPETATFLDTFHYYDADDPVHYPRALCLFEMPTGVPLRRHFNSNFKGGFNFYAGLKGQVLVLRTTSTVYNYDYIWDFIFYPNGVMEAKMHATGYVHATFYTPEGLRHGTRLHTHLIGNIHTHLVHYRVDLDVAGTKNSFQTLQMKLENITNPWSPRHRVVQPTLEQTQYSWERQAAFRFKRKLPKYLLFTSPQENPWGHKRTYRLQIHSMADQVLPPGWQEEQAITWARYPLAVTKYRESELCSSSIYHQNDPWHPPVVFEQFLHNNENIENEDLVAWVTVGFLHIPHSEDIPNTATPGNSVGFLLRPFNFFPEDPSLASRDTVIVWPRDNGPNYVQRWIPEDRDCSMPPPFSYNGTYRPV
Method in brief: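 Inhibition of recombinant human DAO (diamine oxidase, R&D systems) was assessed with the Amplex Red Hydrogen Peroxide Assay Kit. Hydrogen peroxide produced from 1 mM putrescine was detected through an HRP-coupled reaction that converts Amplex Red into fluorescent resorufin, read at 544 nm excitation and 590 nm emission. IC50 values came from four-parameter logistic fits in GraphPad Prism.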

Row | SMILES | IC50 (recombinant human VAP-1) | IC50 [1] | IC50 [2] | IC50 [3]
1 | NC/C(=C\F)Cn1ncn(-c2cccc(C#Cc3ccc4c(c3)NCCO4)n2)c1=O [Example 250, 2-[(E)-2-(aminomethyl)-3-fluoro-allyl]-4-[6-[2-(3,4-dihydro-2H-1,4-benzoxazin-6-yl)ethynyl]-2-pyridyl]-1,2,4-triazol-3-one] | 0.7 nM | > 100000 nM | > 10000 nM | 74 nM
2 | NC/C(=C\F)Cn1ncn(-c2cccc(C#Cc3cnc4c(c3)OCCN4)n2)c1=O [Example 252, 2-[(E)-2-(aminomethyl)-3-fluoro-allyl]-4-[6-[2-(3,4-dihydro-2H-pyrido[3,2-b][1,4]oxazin-7-yl)ethynyl]-2-pyridyl]-1,2,4-triazol-3-one] | 0.6 nM | > 100000 nM | > 10000 nM | 53 nM
3 | NC/C(=C\F)Cn1ncn(-c2cccc(C#Cc3ccc4c(n3)OCCN4)n2)c1=O [Example 253, 2-[(E)-2-(aminomethyl)-3-fluoro-allyl]-4-[6-[2-(2,3-dihydro-1H-pyrido[2,3-b][1,4]oxazin-6-yl)ethynyl]-2-pyridyl]-1,2,4-triazol-3-one] | 0.5 nM | > 100000 nM | > 10000 nM | 34 nM
4 | Cn1cc(C#Cc2cccc(-n3cnn(C/C(=C/F)CN)c3=O)n2)cn1 [Example 257, 2-[(2E)-2-(aminomethyl)-3-fluoroprop-2-en-1-yl]-4-{6-[(1-methyl-1H-pyrazol-4-yl)ethynyl]pyridin-2-yl}-2,4-dihydro-3H-1,2,4-triazol-3-one hydrochloride] | 0.4 nM | > 100000 nM | 5700 nM | 90 nM
5 | Cc1cc(-c2ccc(N3CCNCC3)nc2)cnc1-n1cnn(C/C(=C/F)CN)c1=O [Example 259, 2-[(E)-2-(aminomethyl)-3-fluoro-allyl]-4-[3-methyl-5-(6-piperazin-1-yl-3-pyridyl)-2-pyridyl]-1,2,4-triazol-3-one] | 1.4 nM | > 100000 nM | > 100000 nM | 29000 nM

Next, values leading:

Row | IC50 (recombinant human VAP-1) | IC50 [1] | IC50 [2] | IC50 [3] | SMILES
6 | 0.4 nM | > 100000 nM | 2000 nM | 8 nM | NC/C(=C\F)Cn1ncn(-c2cccc(C#Cc3ccc(N4CCOCC4)nc3)n2)c1=O [Example 249, 2-[(E)-2-(aminomethyl)-3-fluoro-allyl]-4-[6-[2-(6-morpholino-3-pyridyl)ethynyl]-2-pyridyl]-1,2,4-triazol-3-one]
7 | 0.3 nM | > 100000 nM | > 10000 nM | 21 nM | NC/C(=C\F)Cn1ncn(-c2cccc(C#Cc3cnc4c(c3)NCCO4)n2)c1=O [Example 251, 2-[(E)-2-(aminomethyl)-3-fluoro-allyl]-4-[6-[2-(2,3-dihydro-1H-pyrido[2,3-b][1,4]oxazin-7-yl)ethynyl]-2-pyridyl]-1,2,4-triazol-3-one]
8 | 0.2 nM | > 100000 nM | > 10000 nM | 35 nM | NC/C(=C\F)Cn1ncn(-c2cccc(C#Cc3ccc4c(c3)CCC(=O)N4)n2)c1=O [Example 254, 6-[2-[6-[1-[(E)-2-(aminomethyl)-3-fluoro-allyl]-5-oxo-1,2,4-triazol-4-yl]-2-pyridyl]ethynyl]-3,4-dihydro-1H-quinolin-2-one]
9 | 0.2 nM | > 100000 nM | 6100 nM | 20 nM | NC/C(=C\F)Cn1ncn(-c2cccc(C#Cc3cnc4c(c3)OCC(=O)N4)n2)c1=O [Example 255, 7-[2-[6-[1-[(E)-2-(aminomethyl)-3-fluoro-allyl]-5-oxo-1,2,4-triazol-4-yl]-2-pyridyl]ethynyl]-4H-pyrido[3,2-b][1,4]oxazin-3-one]
10 | 0.3 nM | > 100000 nM | > 10000 nM | 27 nM | Cn1cncc1C#Cc1cccc(-n2cnn(C/C(=C/F)CN)c2=O)n1 [Example 256, 2-[(E)-2-(aminomethyl)-3-fluoro-allyl]-4-[6-[2-(3-methylimidazol-4-yl)ethynyl]-2-pyridyl]-1,2,4-triazol-3-one]
11 | 0.2 nM | > 100000 nM | 59000 nM | 1.3 nM | NC/C(=C\F)Cn1ncn(-c2cccc(C#Cc3cnc4c(c3)NC(=O)CO4)n2)c1=O [Example 258, 7-[2-[6-[1-[(E)-2-(aminomethyl)-3-fluoro-allyl]-5-oxo-1,2,4-triazol-4-yl]-2-pyridyl]ethynyl]-1H-pyrido[2,3-b][1,4]oxazin-2-one]
